# From PubChem BioAssay (NCI)
#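 These data come from cells grown in 96-well plates and exposed to compound for 48 hours at five concentrations. At the GI50, growth is halved. Definition used: TGI = concentration required for complete inhibition of growth.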
# Assays:
# Test in all cases: growth of human tumour cells (NCI), 48 h
# [1] = system: NCI/ADR-RES ovarian
# [2] = system: HOP-92 NSCLC
# [3] = system: OVCAR-8 ovarian
# [4] = system: M14 melanoma
# [5] = system: SK-MEL-2 melanoma
# [6] = system: NCI-H226 lung
# [7] = system: MALME-3M melanoma
# [8] = system: PC-3 prostate
# [9] = system: UACC-62 melanoma
# [10] = system: SF-539 CNS
SMILES,GI50 [1] [µM],TGI [1] [µM],GI50 [2] [µM],TGI [2] [µM],GI50 [3] [µM],TGI [3] [µM],GI50 [4] [µM],TGI [4] [µM],GI50 [5] [µM],TGI [5] [µM],GI50 [6] [µM],TGI [6] [µM],GI50 [7] [µM],TGI [7] [µM],GI50 [8] [µM],TGI [8] [µM],GI50 [9] [µM],TGI [9] [µM],GI50 [10] [µM],TGI [10] [µM]
COc1cnc2c(c1)C(=O)c1c-2n(CCCN2CCC(O)CC2)c(=O)c2cc(Cl)ccc12,0.167,2.31,15.5,34.8,0.665,3.53,0.0914,1.86,17.4,33.4,0.662,23.6,14.1,27.9,1.46,3.56,0.191,13.7,0.433,1.64
CN(CCC(=O)/C(=C\c1ccccc1)c1ccc(Cl)cc1)Cc1ccccc1,3.68,> 100,2.55,6.16,3.32,14.8,2.7,7.99,2.6,7.23,2.44,5.53,3.23,11.8,2.93,9.49,1.91,4.37,2.74,6.88
Cn1cc(C2=C(Nc3ccccc3)C(=O)NC2=O)c2ccccc21,> 25,> 25,> 25,> 25,> 25,> 25,> 25,> 25,> 25,> 25,> 25,> 25,> 25,> 25,> 25,> 25,> 25,> 25,> 25,> 25
CCSC[C@@H]1C[C@](O)(c2ccc(F)cc2)[C@@H](c2ccc(F)cc2)O1,21.3,51,15.2,28.6,23.6,> 64.6,15.8,32.4,19.8,42,17.8,38.8,19.9,37.3,15.8,30,13.4,27.4,17,31.1
CN(C)c1ccc(/C=N/S(=O)(=O)c2ccc(-n3c(-c4ccccc4)nc4c(Br)cc(Br)cc4c3=O)cc2)cc1,44.6,> 100,22.7,71.6,34.2,> 100,31.1,> 93.5,23.6,> 96.1,53.8,> 100,47.2,> 89.7,35.3,> 88,28.3,> 92.8,44.4,> 91.8
CC1(C)O[C@@H]2C[C@H]3[C@@H]4C[C@H](F)C5=CC(=O)C=C[C@]5(C)[C@@]4(F)[C@@H](O)C[C@]3(C)[C@]2(C(=O)CO)O1,,> 100,,> 100,,> 100,,> 100,,> 100,,> 100,,> 100,,> 100,,> 100,,> 100
Cc1cccc2c3c(sc12)C(c1ccc(F)cc1)C(C#N)=C(N)O3 (stereo not given),0.0446,4.14,1.07,8.26,0.128,14.2,0.0976,11.7,1.7,21.6,0.239,3.9,0.08,19,0.045,11.3,0.0433,11.7,0.0473,0.679
